Experimental data reported in US12617779B2, “Self degradation-type CDK9 inhibitor prodrug and liposome encapsulating same” (Sumitomo Pharma Co., Ltd., priority 2021, dated 2026).

Assay: Evaluation of conversion rate to active form in buffer solution (Experimental Example 1)
Type: physicochemical
Conditions: for Production rate of Alvocidib / Residual rate: 37° C., 25 umol/L in buffer solution; for Stability in buffer solution at pH 5: pH 5, 37° C., up to 2 or 3 hours; for Conversion to Alvocidib at pH 7.4: pH 7.4, 37° C., up to 3 hours
Outline: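 Compounds at 25 umol/L were held at 37 °C in 50 mM citrate (pH 5.0, 5.5) or phosphate (pH 6.0–7.4) buffers. Remaining compound and Alvocidib formed were quantified by HPLC at 0, 0.5, 1, 2 and 3 h.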

CN1CC[C@H](c2c(OC(=O)N(CCF)CC3CCCCN3)cc(O)c3c(=O)cc(-c4ccccc4Cl)oc23)[C@H](O)C1 (stereo partly drawn) [Example 11, 2-(2-chlorophenyl)-5-hydroxy-8-[(3S,4R)-3-hydroxy-1-methylpiperidin-4-yl]-4-oxo-4H-1-benzopyran-7-yl (2-fluoroethyl) [(piperidin-2-yl)methyl]carbamate]
Production rate of Alvocidib (pH5.0, 0 hr): 0.2% | Residual rate (pH5.0, 0 hr): 83.2% | Stability in buffer solution at pH 5: stable | Production rate of Alvocidib (pH5.0, 0.5 hr): 0.9% | Residual rate (pH5.0, 0.5 hr): 82.7% | Production rate of Alvocidib (pH5.0, 1 hr): 1.8% | Residual rate (pH5.0, 1 hr): 81.3% | Production rate of Alvocidib (pH5.0, 2 hr): 3.3% | Residual rate (pH5.0, 2 hr): 80.5% | Production rate of Alvocidib (pH5.0, 3 hr): 4.8% | Residual rate (pH5.0, 3 hr): 79.1% | Production rate of Alvocidib (pH5.5, 0 hr): 0.2% | Residual rate (pH5.5, 0 hr): 83.6% | Production rate of Alvocidib (pH5.5, 0.5 hr): 2.5% | Residual rate (pH5.5, 0.5 hr): 81.8% | Production rate of Alvocidib (pH5.5, 1 hr): 4.8% | Residual rate (pH5.5, 1 hr): 79.2% | Production rate of Alvocidib (pH5.5, 2 hr): 9.4% | Residual rate (pH5.5, 2 hr): 75.0% | Production rate of Alvocidib (pH5.5, 3 hr): 14.0% | Residual rate (pH5.5, 3 hr): 70.2% | Production rate of Alvocidib (pH6.0, 0 hr): 0.3% | Residual rate (pH6.0, 0 hr): 83.7% | Production rate of Alvocidib (pH6.0, 0.5 hr): 8.5% | Residual rate (pH6.0, 0.5 hr): 76.0% | Production rate of Alvocidib (pH6.0, 1 hr): 16.9% | Residual rate (pH6.0, 1 hr): 66.6% | Production rate of Alvocidib (pH6.0, 2 hr): 32.6% | Residual rate (pH6.0, 2 hr): 49.8% | Production rate of Alvocidib (pH6.0, 3 hr): 39.4% | Residual rate (pH6.0, 3 hr): 44.8% | Production rate of Alvocidib (pH6.5, 0 hr): 0.8% | Residual rate (pH6.5, 0 hr): 81.4% | Production rate of Alvocidib (pH6.5, 0.5 hr): 23.6% | Residual rate (pH6.5, 0.5 hr): 60.4% | Production rate of Alvocidib (pH6.5, 1 hr): 46.5% | Residual rate (pH6.5, 1 hr): 35.6% | Production rate of Alvocidib (pH6.5, 2 hr): 60.2% | Residual rate (pH6.5, 2 hr): 23.7% | Production rate of Alvocidib (pH6.5, 3 hr): 62.7% | Residual rate (pH6.5, 3 hr): 21.4% | Production rate of Alvocidib (pH7.0, 0 hr): 2.1% | Residual rate (pH7.0, 0 hr): 80.0% | Production rate of Alvocidib (pH7.0, 0.5 hr): 53.4% | Residual rate (pH7.0, 0.5 hr): 30.1% | Production rate of Alvocidib (pH7.0, 1 hr): 62.1% | Residual rate (pH7.0, 1 hr): 22.0% | Production rate of Alvocidib (pH7.0, 2 hr): 67.0% | Residual rate (pH7.0, 2 hr): 17.1% | Production rate of Alvocidib (pH7.0, 3 hr): 71.6% | Residual rate (pH7.0, 3 hr): 12.4% | Production rate of Alvocidib (pH7.4, 0 hr): 4.6% | Residual rate (pH7.4, 0 hr): 79.7% | Conversion to Alvocidib at pH 7.4: rapidly converted to Alvocidib | Production rate of Alvocidib (pH7.4, 0.5 hr): 68.3% | Residual rate (pH7.4, 0.5 hr): 16.2% | Production rate of Alvocidib (pH7.4, 1 hr): 67.0% | Residual rate (pH7.4, 1 hr): 16.7% | Production rate of Alvocidib (pH7.4, 2 hr): 67.9% | Residual rate (pH7.4, 2 hr): 16.2% | Production rate of Alvocidib (pH7.4, 3 hr): 67.3% | Residual rate (pH7.4, 3 hr): 15.9%

COCCN(CC1CCCCN1)C(=O)Oc1cc(O)c2c(=O)cc(-c3ccccc3Cl)oc2c1[C@H]1CCN(C)C[C@H]1O (stereo partly drawn) [Example 12, 2-(2-chlorophenyl)-5-hydroxy-8-[(3S,4R)-3-hydroxy-1-methylpiperidin-4-yl]-4-oxo-4H-1-benzopyran-7-yl (2-methoxyethyl) [(piperidin-2-yl)methyl]carbamate]
Production rate of Alvocidib (pH5.0, 0 hr): 0.5% | Residual rate (pH5.0, 0 hr): 80.7% | Stability in buffer solution at pH 5: stable | Production rate of Alvocidib (pH5.0, 0.5 hr): 1.1% | Residual rate (pH5.0, 0.5 hr): 80.3% | Production rate of Alvocidib (pH5.0, 1 hr): 1.5% | Residual rate (pH5.0, 1 hr): 79.6% | Production rate of Alvocidib (pH5.0, 2 hr): 2.3% | Residual rate (pH5.0, 2 hr): 79.6% | Production rate of Alvocidib (pH5.0, 3 hr): 3.9% | Residual rate (pH5.0, 3 hr): 77.3% | Production rate of Alvocidib (pH5.5, 0 hr): 0.5% | Residual rate (pH5.5, 0 hr): 80.6% | Production rate of Alvocidib (pH5.5, 0.5 hr): 1.9% | Residual rate (pH5.5, 0.5 hr): 79.9% | Production rate of Alvocidib (pH5.5, 1 hr): 3.8% | Residual rate (pH5.5, 1 hr): 77.5% | Production rate of Alvocidib (pH5.5, 2 hr): 6.9% | Residual rate (pH5.5, 2 hr): 73.8% | Production rate of Alvocidib (pH5.5, 3 hr): 9.8% | Residual rate (pH5.5, 3 hr): 71.2% | Production rate of Alvocidib (pH6.0, 0 hr): 0.6% | Residual rate (pH6.0, 0 hr): 80.8% | Production rate of Alvocidib (pH6.0, 0.5 hr): 6.2% | Residual rate (pH6.0, 0.5 hr): 75.4% | Production rate of Alvocidib (pH6.0, 1 hr): 11.0% | Residual rate (pH6.0, 1 hr): 70.3% | Production rate of Alvocidib (pH6.0, 2 hr): 22.5% | Residual rate (pH6.0, 2 hr): 56.2% | Production rate of Alvocidib (pH6.0, 3 hr): 26.9% | Residual rate (pH6.0, 3 hr): 54.0% | Production rate of Alvocidib (pH6.5, 0 hr): 1.0% | Residual rate (pH6.5, 0 hr): 80.4% | Production rate of Alvocidib (pH6.5, 0.5 hr): 16.6% | Residual rate (pH6.5, 0.5 hr): 63.8% | Production rate of Alvocidib (pH6.5, 1 hr): 31.8% | Residual rate (pH6.5, 1 hr): 39.4% | Production rate of Alvocidib (pH6.5, 2 hr): 40.5% | Residual rate (pH6.5, 2 hr): 26.2% | Production rate of Alvocidib (pH6.5, 3 hr): 52.2% | Residual rate (pH6.5, 3 hr): 13.4% | Production rate of Alvocidib (pH7.0, 0 hr): 1.7% | Residual rate (pH7.0, 0 hr): 80.2% | Production rate of Alvocidib (pH7.0, 0.5 hr): 33.8% | Residual rate (pH7.0, 0.5 hr): 35.8% | Production rate of Alvocidib (pH7.0, 1 hr): 51.2% | Residual rate (pH7.0, 1 hr): 15.4% | Production rate of Alvocidib (pH7.0, 2 hr): 60.2% | Residual rate (pH7.0, 2 hr): 0.0% | Production rate of Alvocidib (pH7.0, 3 hr): 62.7% | Residual rate (pH7.0, 3 hr): 0.0% | Production rate of Alvocidib (pH7.4, 0 hr): 3.9% | Residual rate (pH7.4, 0 hr): 77.3% | Conversion to Alvocidib at pH 7.4: rapidly converted to Alvocidib | Production rate of Alvocidib (pH7.4, 0.5 hr): 51.0% | Residual rate (pH7.4, 0.5 hr): 10.8% | Production rate of Alvocidib (pH7.4, 1 hr): 65.9% | Residual rate (pH7.4, 1 hr): 0.0% | Production rate of Alvocidib (pH7.4, 2 hr): 67.3% | Residual rate (pH7.4, 2 hr): 0.0% | Production rate of Alvocidib (pH7.4, 3 hr): 63.6% | Residual rate (pH7.4, 3 hr): 0.0%
